Reference: the kinase profiling compilation of Christmann-Franck et al. (2016)

What was measured:
Assay in all cases: KINOMEscan competition binding
Details in all cases: compound 10.0 µM
[1] = target: BRSK2 (human) (UniProt Q8IWQ3)
[2] = target: MAP4K4 (human) (UniProt O95819)
[3] = target: CAMKK2 (human) (UniProt Q96RR4)
[4] = target: RPS6KA5 KD1 (human) (UniProt O75582)
[5] = target: CDKL1 (human) (UniProt Q00532)
[6] = target: PTK6 (human) (UniProt Q13882)
[7] = target: CASK (human) (UniProt O14936)
[8] = target: PLK3 (human) (UniProt Q9H4B4)
[9] = target: RPS6KA2 KD1 (human) (UniProt Q15349)
[10] = target: STK4 (human) (UniProt Q13043)
STK4 (human), sequence (Q13043 whole entry, looked up): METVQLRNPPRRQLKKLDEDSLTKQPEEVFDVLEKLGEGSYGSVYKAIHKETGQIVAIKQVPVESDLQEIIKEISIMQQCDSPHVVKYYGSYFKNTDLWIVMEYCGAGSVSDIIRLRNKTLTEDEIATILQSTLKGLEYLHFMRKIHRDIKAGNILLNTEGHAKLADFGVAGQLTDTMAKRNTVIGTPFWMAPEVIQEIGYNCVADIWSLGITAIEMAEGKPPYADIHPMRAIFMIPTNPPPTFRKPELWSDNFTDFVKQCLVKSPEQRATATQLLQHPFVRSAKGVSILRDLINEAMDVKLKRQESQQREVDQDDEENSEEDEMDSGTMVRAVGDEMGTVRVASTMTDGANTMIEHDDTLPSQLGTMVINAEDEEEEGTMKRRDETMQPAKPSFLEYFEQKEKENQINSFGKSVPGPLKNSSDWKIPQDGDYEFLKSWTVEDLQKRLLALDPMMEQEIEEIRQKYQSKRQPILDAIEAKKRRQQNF

[11] = target: PAK3 (human) (UniProt O75914)
[12] = target: AKT2 (human) (UniProt P31751)
[13] = target: PIP4K2B (human) (UniProt P78356)
[14] = target: MAP3K10 (human) (UniProt Q02779)
MAP3K10 (human), sequence (Q02779 whole entry, looked up): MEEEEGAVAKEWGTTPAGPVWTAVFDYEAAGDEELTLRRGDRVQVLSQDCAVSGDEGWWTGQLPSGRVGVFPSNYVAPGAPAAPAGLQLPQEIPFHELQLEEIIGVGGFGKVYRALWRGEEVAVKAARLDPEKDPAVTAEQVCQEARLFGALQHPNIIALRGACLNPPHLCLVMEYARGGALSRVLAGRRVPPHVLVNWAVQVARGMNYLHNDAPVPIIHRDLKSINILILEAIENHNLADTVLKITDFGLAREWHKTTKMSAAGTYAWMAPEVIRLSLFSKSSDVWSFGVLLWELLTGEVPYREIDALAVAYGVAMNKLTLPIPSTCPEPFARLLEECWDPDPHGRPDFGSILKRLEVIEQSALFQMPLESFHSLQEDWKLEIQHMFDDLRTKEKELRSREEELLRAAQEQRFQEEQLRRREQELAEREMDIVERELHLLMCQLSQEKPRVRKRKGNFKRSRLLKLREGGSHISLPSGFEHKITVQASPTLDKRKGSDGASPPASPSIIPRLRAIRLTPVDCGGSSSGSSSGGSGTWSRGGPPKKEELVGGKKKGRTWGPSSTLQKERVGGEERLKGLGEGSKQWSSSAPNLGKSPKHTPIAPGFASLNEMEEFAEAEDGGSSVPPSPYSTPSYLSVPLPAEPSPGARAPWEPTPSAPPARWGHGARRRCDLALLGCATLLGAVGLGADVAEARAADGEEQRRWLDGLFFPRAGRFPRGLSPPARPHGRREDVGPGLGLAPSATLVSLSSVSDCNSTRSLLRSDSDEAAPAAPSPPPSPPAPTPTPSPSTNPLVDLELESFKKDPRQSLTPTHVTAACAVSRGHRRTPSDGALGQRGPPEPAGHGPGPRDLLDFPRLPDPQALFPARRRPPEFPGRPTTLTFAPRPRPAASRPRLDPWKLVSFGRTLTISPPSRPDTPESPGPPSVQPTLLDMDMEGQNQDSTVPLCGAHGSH

[15] = target: NTRK2 (human) (UniProt Q16620)
[16] = target: RPS6KA4 KD1 (human) (UniProt O75676)
RPS6KA4 KD1 (human), sequence (O75676 whole entry, looked up): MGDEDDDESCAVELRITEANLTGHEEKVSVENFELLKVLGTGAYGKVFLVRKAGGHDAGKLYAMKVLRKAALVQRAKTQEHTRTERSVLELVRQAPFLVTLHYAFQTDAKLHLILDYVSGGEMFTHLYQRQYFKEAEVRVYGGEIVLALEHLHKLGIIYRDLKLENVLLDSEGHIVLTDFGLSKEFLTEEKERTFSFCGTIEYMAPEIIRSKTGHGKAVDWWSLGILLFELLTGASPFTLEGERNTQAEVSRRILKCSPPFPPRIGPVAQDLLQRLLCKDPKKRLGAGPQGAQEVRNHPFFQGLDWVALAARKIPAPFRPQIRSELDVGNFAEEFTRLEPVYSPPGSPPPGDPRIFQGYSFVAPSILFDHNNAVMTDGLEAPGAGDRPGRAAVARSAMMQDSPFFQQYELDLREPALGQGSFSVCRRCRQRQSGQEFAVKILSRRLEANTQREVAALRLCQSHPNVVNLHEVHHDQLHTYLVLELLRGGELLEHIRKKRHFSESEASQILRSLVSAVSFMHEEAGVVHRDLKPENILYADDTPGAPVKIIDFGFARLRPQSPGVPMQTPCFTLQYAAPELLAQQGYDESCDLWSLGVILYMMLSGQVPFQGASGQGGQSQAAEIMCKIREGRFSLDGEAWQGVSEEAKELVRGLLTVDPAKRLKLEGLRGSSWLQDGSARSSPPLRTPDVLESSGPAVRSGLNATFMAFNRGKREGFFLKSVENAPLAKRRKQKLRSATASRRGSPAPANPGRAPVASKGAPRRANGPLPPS

[17] = target: KDR (human) (UniProt P35968)
[18] = target: RIOK2 (human) (UniProt Q9BVS4)
[19] = target: EPHA5 (human) (UniProt P54756)
[20] = target: DMPK (human) (UniProt Q09013)
[21] = target: ITK (human) (UniProt Q08881)
[22] = target: CSNK1G1 (human) (UniProt Q9HCP0)
[23] = target: NEK2 (human) (UniProt P51955)
NEK2 (human), sequence (P51955 whole entry, looked up): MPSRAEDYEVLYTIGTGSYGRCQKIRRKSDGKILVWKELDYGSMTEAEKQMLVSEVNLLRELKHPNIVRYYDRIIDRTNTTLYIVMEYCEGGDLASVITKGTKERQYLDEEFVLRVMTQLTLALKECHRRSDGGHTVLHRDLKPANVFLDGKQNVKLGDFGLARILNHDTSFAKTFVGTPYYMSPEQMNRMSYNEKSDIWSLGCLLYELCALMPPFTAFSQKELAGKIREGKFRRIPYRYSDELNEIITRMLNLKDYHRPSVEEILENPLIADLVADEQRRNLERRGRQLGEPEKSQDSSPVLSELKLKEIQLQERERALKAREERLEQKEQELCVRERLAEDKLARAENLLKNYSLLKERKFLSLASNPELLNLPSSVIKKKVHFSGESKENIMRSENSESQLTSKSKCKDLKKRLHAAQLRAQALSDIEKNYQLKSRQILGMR

[24] = target: MELK (human) (UniProt Q14680)
[25] = target: DAPK1 (human) (UniProt P53355)
[26] = target: NEK9 (human) (UniProt Q8TD19)
[27] = target: CDK4 CCND3 (human) (UniProt P11802+P30281)
[28] = target: TAOK1 (human) (UniProt Q7L7X3)
[29] = target: NEK7 (human) (UniProt Q8TDX7)
[30] = target: RPS6KA3 KD1 (human) (UniProt P51812)
[31] = target: DYRK1A (human) (UniProt Q13627)
[32] = target: PIK3C2B (human) (UniProt O00750)
PIK3C2B (human), sequence (O00750 whole entry, looked up): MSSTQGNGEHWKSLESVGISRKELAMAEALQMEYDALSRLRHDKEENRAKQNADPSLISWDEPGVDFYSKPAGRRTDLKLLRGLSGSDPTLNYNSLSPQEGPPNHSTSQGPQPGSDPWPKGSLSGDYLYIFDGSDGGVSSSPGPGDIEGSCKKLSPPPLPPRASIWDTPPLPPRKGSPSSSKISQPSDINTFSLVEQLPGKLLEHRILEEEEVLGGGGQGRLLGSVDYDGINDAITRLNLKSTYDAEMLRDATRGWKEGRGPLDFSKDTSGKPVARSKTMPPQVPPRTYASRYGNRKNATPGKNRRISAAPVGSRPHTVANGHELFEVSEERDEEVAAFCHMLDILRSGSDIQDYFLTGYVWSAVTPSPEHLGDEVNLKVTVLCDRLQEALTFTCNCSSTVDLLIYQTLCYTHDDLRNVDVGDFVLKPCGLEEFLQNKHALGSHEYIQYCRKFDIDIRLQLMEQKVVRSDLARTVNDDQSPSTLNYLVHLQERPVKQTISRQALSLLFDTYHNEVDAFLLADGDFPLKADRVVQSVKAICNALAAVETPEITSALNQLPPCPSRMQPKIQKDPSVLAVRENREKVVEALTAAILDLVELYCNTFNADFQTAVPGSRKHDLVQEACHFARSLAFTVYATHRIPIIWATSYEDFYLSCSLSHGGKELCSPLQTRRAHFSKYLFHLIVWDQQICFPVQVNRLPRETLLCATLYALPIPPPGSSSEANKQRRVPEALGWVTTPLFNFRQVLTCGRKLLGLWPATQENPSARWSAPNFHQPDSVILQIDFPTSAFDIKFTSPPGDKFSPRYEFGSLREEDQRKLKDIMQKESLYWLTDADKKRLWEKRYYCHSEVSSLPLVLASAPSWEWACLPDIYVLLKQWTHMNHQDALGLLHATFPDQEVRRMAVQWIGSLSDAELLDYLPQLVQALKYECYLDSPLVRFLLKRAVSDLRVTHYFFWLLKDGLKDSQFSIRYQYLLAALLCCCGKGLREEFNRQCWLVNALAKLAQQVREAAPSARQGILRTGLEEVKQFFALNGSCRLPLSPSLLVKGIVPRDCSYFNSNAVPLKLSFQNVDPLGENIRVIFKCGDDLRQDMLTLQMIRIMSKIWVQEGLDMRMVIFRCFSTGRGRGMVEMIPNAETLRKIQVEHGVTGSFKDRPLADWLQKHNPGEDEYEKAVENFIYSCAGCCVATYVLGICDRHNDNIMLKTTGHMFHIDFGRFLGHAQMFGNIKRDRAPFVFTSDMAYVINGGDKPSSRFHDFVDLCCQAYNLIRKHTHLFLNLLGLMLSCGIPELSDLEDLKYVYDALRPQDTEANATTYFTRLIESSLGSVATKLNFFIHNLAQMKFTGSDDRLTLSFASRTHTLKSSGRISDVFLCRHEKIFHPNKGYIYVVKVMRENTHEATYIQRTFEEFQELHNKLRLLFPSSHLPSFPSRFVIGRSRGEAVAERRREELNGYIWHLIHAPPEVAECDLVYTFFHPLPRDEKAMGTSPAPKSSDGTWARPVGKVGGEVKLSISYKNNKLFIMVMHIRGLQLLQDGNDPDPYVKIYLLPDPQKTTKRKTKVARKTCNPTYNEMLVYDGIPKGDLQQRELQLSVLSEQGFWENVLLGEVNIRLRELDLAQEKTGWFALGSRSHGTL

[33] = target: LATS1 (human) (UniProt O95835)
[34] = target: CAMK2G (human) (UniProt Q13555)
[35] = target: CDK17 (human) (UniProt Q00537)
[36] = target: ANKK1 (human) (UniProt Q8NFD2)
[37] = target: VRK2 (human) (UniProt Q86Y07)
[38] = target: CDC42BPG (human) (UniProt Q6DT37)
[39] = target: PRKCQ (human) (UniProt Q04759)

RPS6KA5 KD1 (human), sequence (O75582 whole entry, looked up): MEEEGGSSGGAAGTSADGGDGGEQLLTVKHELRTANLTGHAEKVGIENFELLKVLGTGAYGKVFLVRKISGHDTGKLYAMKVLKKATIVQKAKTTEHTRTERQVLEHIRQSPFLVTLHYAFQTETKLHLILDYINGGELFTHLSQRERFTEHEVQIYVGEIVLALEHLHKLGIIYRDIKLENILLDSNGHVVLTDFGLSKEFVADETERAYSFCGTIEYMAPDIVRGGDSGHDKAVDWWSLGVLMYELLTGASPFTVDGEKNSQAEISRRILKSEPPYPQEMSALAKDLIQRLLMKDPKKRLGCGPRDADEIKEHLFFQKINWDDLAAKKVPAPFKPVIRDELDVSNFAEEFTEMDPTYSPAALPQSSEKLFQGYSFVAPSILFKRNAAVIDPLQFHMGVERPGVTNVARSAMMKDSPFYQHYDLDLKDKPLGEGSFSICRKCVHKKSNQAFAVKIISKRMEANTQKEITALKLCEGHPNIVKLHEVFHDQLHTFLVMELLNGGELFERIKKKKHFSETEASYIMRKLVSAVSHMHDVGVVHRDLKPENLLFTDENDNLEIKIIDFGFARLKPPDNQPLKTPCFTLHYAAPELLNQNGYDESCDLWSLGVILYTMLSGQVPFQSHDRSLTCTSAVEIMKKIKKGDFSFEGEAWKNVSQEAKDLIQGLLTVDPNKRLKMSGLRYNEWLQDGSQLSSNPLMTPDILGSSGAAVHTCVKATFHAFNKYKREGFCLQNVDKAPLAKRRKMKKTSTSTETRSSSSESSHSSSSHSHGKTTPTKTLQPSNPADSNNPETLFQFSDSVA

COc1cc2ncn(-c3cc(OCc4ccccc4C(F)(F)F)c(C(N)=O)s3)c2cc1OC
kinase still bound, per cent of control [1]: 31%
kinase still bound, per cent of control [2]: 53%
kinase still bound, per cent of control [3]: 44%
kinase still bound, per cent of control [4]: 100%
kinase still bound, per cent of control [5]: 72%
kinase still bound, per cent of control [6]: 84%
kinase still bound, per cent of control [7]: 93%
kinase still bound, per cent of control [8]: 0%
kinase still bound, per cent of control [9]: 61%
kinase still bound, per cent of control [10]: 56%
kinase still bound, per cent of control [11]: 77%
kinase still bound, per cent of control [12]: 100%
kinase still bound, per cent of control [13]: 6.6%
kinase still bound, per cent of control [14]: 98%
kinase still bound, per cent of control [15]: 59%
kinase still bound, per cent of control [16]: 69%
kinase still bound, per cent of control [17]: 76%
kinase still bound, per cent of control [18]: 66%
kinase still bound, per cent of control [19]: 90%
kinase still bound, per cent of control [20]: 98%
kinase still bound, per cent of control [21]: 98%
kinase still bound, per cent of control [22]: 86%
kinase still bound, per cent of control [23]: 14%
kinase still bound, per cent of control [24]: 61%
kinase still bound, per cent of control [25]: 8.6%
kinase still bound, per cent of control [26]: 48%
kinase still bound, per cent of control [27]: 100%
kinase still bound, per cent of control [28]: 47%
kinase still bound, per cent of control [29]: 74%
kinase still bound, per cent of control [30]: 22%
kinase still bound, per cent of control [31]: 75%
kinase still bound, per cent of control [32]: 63%
kinase still bound, per cent of control [33]: 100%
kinase still bound, per cent of control [34]: 83%
kinase still bound, per cent of control [35]: 100%
kinase still bound, per cent of control [36]: 80%
kinase still bound, per cent of control [37]: 87%
kinase still bound, per cent of control [38]: 64%

CNC(=O)c1cc(Oc2ccc(NC(=O)Nc3ccc(Cl)c(C(F)(F)F)c3)cc2)ccn1
kinase still bound, per cent of control [1]: 85%
kinase still bound, per cent of control [2]: 18%
kinase still bound, per cent of control [3]: 72%
kinase still bound, per cent of control [4]: 100%
kinase still bound, per cent of control [5]: 70%
kinase still bound, per cent of control [6]: 100%
kinase still bound, per cent of control [7]: 90%
kinase still bound, per cent of control [9]: 55%
kinase still bound, per cent of control [10]: 81%
kinase still bound, per cent of control [11]: 40%
kinase still bound, per cent of control [12]: 70%
kinase still bound, per cent of control [13]: 94%
kinase still bound, per cent of control [14]: 73%
kinase still bound, per cent of control [16]: 85%
kinase still bound, per cent of control [18]: 97%
kinase still bound, per cent of control [19]: 30%
kinase still bound, per cent of control [20]: 100%
kinase still bound, per cent of control [21]: 100%
kinase still bound, per cent of control [22]: 100%
kinase still bound, per cent of control [23]: 100%
kinase still bound, per cent of control [24]: 100%
kinase still bound, per cent of control [25]: 99%
kinase still bound, per cent of control [26]: 79%
kinase still bound, per cent of control [27]: 79%
kinase still bound, per cent of control [28]: 23%
kinase still bound, per cent of control [29]: 100%
kinase still bound, per cent of control [30]: 81%
kinase still bound, per cent of control [31]: 100%
kinase still bound, per cent of control [32]: 92%
kinase still bound, per cent of control [33]: 79%
kinase still bound, per cent of control [39]: 84%
kinase still bound, per cent of control [35]: 17%
kinase still bound, per cent of control [36]: 100%
kinase still bound, per cent of control [37]: 100%
